Source: US8841285B2, “Potent immunosuppressive agents, derivatives and uses” (priority 2002, dated 2014)

Legend:
[1] = molecular target: T1, eIF4AI (Homo sapiens, UniProt P60842); test: ATP-dependent RNA helicase activity of 6XHis-eIF4AI; format: biochemical
T1 construct: The entire ORF of human eIF4AI was ligated in-frame into the BamHI and HindIII sites of the pET-28a expression vector; 6XHis (N); made in house; host or cells: E. coli BL21(DE3)
Method: Recombinant proteins. The entire ORF of human eIF4AI was ligated in-frame into the BamHI and HindIII sites of the pET-28a expression vector after PCR amplification from HeLa cells. Protein was produced in BL21(DE3) E. coli cultured in LB medium by induction with 1 mM IPTG for 6 h at 37° C. Cells were lysed by sonication and protein was purified using Ni-NTA resin as described by the manufacturer. For pET(His6-eIF4B), induction conditions were for 72 h at 16° C. Purification included a 1 ml Heparin column with a linear KCl gradient (50-500 mM).
ATPase and Helicase. ATPase activity was performed as described (Korneeva et al., 2005) with minor modifications. Reactions contained 2.5% DMSO, 6XHis-eIF4AI concentration was 0.56 μM, and reaction time was 10 min at 37° C. in buffer: 20 mM Tris-HCl, pH 7.5, 0.5 mM MgCl2, 100 mM KCl, 2 mM DTT, 0.1% (v/v) Tween 20, 10% (v/v) glycerol, 1 mg/ml BSA, and reactions were supplemented with 3-5 μCi of [γ-^32P]-ATP (6000 Ci/mmol). Saturating poly(U) concentrations were 1239 μM (nucleotides/20). Released phosphate was visualized on 15% native TBE polyacrylamide gels followed by autoradiography of wet gels (30 min exposure). Film was aligned with gels and spots were excised and ^32P levels were quantified by scintillation counting. Km and Vmax were determined by curve fitting. […]

[2] = test system: MCF-7 cells; test: cell proliferation assay, MCF-7 cells; format: cell-based; settings: MCF-7 cells (FIG. 13)
Method: Cell Proliferation Assay. 1×10^5 of indicated cells in each well of a 96-well plate were treated with indicated compounds for 24 h followed by addition of 0.11 μCi of [^3H]-thymidine (6.7 Ci/mmol) per well for 6 h, followed by harvesting to GF/C filtermats using a cell harvester. Filtermats were air-dried and scintillation counted. IC50s were determined from quadruplicate data readings and curve-fitting analysis.

[3] = test system: 293T cells; test: cellular polyribosome profiles; format: cell-based; settings: 30 min treatment
Method: Cellular polyribosome profiles. 293T cells were treated as indicated for 30 min. Cells were washed twice with ice-cold PBS and pipetted for 5 min in 500 μl of chilled TMK100 buffer (20 mM Tris-HCl pH 7.4, 5 mM MgCl2 100 mM KCl, 2 mM DTT, 1% Triton X-100 and 100 U/ml RNAsin in DEPC water). After clearing at 10,000×g (10 min) at 4° C., the supernatant (S10) was layered onto 11 ml, 15-45% linear sucrose gradient containing 20 mM HEPES pH 7.4, 100 mM KCl, 5 mM MgCl2 and 2 mM DTT. Ultracentrifugation at 40,000 rpm for 1.5 h at 4° C. was performed in a suitable rotor. Fractions were collected from the top of the gradient by injection of Flurinert FC-40 from bottom of centrifuge tube. Gradient profiles were monitored at 254 nm. For immunoblotting, 7 mg of total protein were processed as described above, followed by collection of 500 μl fractions were collected from the top. 100 μl aliquots of each were boiled in SDS sample buffer, followed by SDS-PAGE and immunoblotting.

[4] = test system: EMCV IRES mediated initiation; test: in vitro translation in RRL, EMCV IRES cistron; format: biochemical, rabbit; settings: EMCV IRES bicistronic reporter
Method: In vitro Translation and Transcription. pSP/(CAG)33/FF/HCV/Ren·pA51 and pKS/FF/EMC/Ren were linearized by BamHI, then purified by phenol:chloroform extraction and ethanol precipitation, and dissolved in water. pSP/(CAG)33/FF/HCV/Ren·A51 and pKS/FF/EMC/Ren were individually transcribed using a large scale RNA production system in the presence of m7Gppp cap analog followed by incubation with DNase as described by the manufacturer. Resulting RNA was purified using a kit as described by the manufacturer. Translation was performed using a rabbit reticulocyte lysate system as per instructions. Briefly, 200 ng of purified RNA was combined in a 20 μl reaction containing 10 μl RRL, 0.2 μl each of minus Met and minus Leu amino acid mixtures, 70 mM KCl, 2 mM DTT, 1× translation buffer, and 10 units of RNasin. Compounds or DMSO were added to a final DMSO concentration of 2%. Reactions were incubated at 30° C. for 1.5 h, then 5 μl of the reaction mixture was assayed for luciferase activity as per instructions of luciferas reporter assay system.

T1 sequence (P60842 whole entry): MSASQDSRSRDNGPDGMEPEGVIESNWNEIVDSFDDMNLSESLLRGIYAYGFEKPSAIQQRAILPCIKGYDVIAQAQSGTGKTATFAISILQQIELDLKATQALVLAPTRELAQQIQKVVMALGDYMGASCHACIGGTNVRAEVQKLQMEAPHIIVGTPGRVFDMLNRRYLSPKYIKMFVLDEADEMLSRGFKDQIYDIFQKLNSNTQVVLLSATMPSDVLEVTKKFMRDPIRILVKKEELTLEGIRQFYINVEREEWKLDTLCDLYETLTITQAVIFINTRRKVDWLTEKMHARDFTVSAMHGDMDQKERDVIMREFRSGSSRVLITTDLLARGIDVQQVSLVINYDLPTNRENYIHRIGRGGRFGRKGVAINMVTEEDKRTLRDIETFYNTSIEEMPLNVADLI

Row | SMILES | effect on helicase activity of eIF4A and 4B ([1]; in the presence of 6XHis-4B) | effect on ATP-dependent RNA helicase activity of eIF4AI ([1]; with ATP) | reversibility of antiproliferative effect [2] | effect on polysome profile [3] | IC50 [4] [nM]
1 | CC(/C=C/C(C)=C/[C@@H]1Cc2nc(cs2)CCCCC(=O)O[C@@H](C)C/C(C)=C/C=C\C(=O)O1)=C\CN(C)C [compound 3, desmethyl, desamino-pateamine A] | further stimulated | dramatically increased | – | – | –
2 | CC(/C=C/C(C)=C/[C@@H]1Cc2nc(cs2)[C@@H](C)C[C@@H](N)CC(=O)O[C@@H](C)C/C(C)=C/C=C\C(=O)O1)=C\CN(C)C [Pat A (1), Pateamine A] | – | – | irreversible | depletion of polysomes | ~54
